# According to patent US20110092439A1, “METHOD OF PROMOTING WOUND HEALING” (priority 2008, published 2011):
# “Also recorded” adds a separate entry of the source.
# Tests used:
# tooth movement = conditions: RLX via gingival injections, dog models; cited from earlier work
# wounded sites = conditions: systemic relaxin, rats; cited from earlier work
# [1] = Canine gingiva study: RLX migration and degradation after gingival injection (SELDI-TOF MS); format: in vivo, dog
# [2] = as above; format: in vivo, dog; conditions: for migration of RLX through the gingiva: after gingival injection; for concentration of H2 RLX detected in treated gingiva: site of injection
# Method: The aim of this study was to determine the rate of RLX migration and extent of degradation after gingival injections. […] Employing a dog model, RLX was administered and tissue punch biopsies were collected at the site of injection and 0.5, 1 and 2 cm from the site of injection. Tissue was collected at several time points including 1, 2 and 4 hrs after injection. Protein was extracted from the gingival biopsies and analysed via ProteinChip technology (Surface Enhanced Laser Desorption/Ionization Time-of-Flight Mass Spectrometry, SELDI-TOF MS), which combines two well-established methods of solid phase chromatography and TOF-MS into an integrated platform. ProteinChip arrays were coated with anti-H2 RLX Ab, allowing the specific capture of RLX and associated breakdown/modified products.
# Design of Drug. Gingival injections were administered (25 μg H2 RLX/100 μl, 41 μM) and tissue was collected at several positions including the site of injection and 0.5, 1 and 2 cm from the site of injection. Tissue was collected 1, 2 and 3 hrs after injection.
# a) Protein Extraction and Quantitation. Frozen gingival biopsies were homogenized in extraction buffer (10 μl/mg tissue) containing 10 mM Tris-HCl, 10 mM NaCl, 0.1% TFA and protease inhibitor (complete mini, Roche). The extract was centrifuged (6000×g) for 10 min and the supernatant was collected, aliquoted and stored at −80° C. Total protein concentration was determined using the Bradford assay. Protein concentrations ranged from 1.4 mg/ml to 2.8 mg/ml, all samples were standardized to 1.4 mg/ml in extraction buffer.
# b) SELDI-TOF MS analysis—Analysis of RLX treated gingiva on PG20 arrays. Anti-H2 RLX Ab (2 μl/0.25 mg/ml; Genentech) or control IgG (Ciphergen Biosystems) was applied to each spot of a PS20 array which had been pre-coated with Protein G (Ciphergen Biosystems). After antibody binding, the chip was washed once with PBS/0.5% Triton X-100 for 5 min with agitation (5 μl per spot), followed by two PBS washes. Dog gingiva extracts (3 μl/1.4 mg/ml) were applied to each spot and incubated for 4 hrs. Non-specifically bound proteins were removed by sequentially washing with PBS/0.5% Triton X-100, PBS and 1 mM HEPES, pH 7.2. The chips were air dried and 1 μl of 50% saturated sinapinic acid in 50% (v/v) acetonitrile, 0.5% trifluoroacetic acid was applied onto each spot twice, arrays were air dried between each application. Chips were subsequently analysed by SELDI-TOF MS (Ciphergen Biosystems) using the following settings, laser 220 and sensitivity 9.
# c) Generation of H2 RLX Std Curve on PG20 arrays. H2 RLX (batch number 11835-89) was spiked into control dog gingiva (1.4 mg/ml) at different concentrations, including 100 nM, 50 nM, 12.5 nM, 6.25 nM, 3.125 nM and 1.56 nM and analysed as described above.
# [3] = test system: 20×6 mm incisional wounds on the back; test: Porcine skin wound study; format: in vivo, juvenile pigs
# Description: Overview of the Animal Study. In selecting the appropriate animal for this study, a pig was selected because of the anatomical similarities between pig skin and human skin. In fact, pig wound healing has been used in numerous studies to simulate human skin (Sullivan et al., Wound Repair Regen. 9: 66-76, 2001).
# Design of Study. In this study, juvenile pigs were oriented with twelve wound sites per animal—20×6 mm incisional wounds on the back—over the course of a six week study (see FIG. 2). Systemic relaxin was delivered via mini-pumps to achieve 20 ng/mL serum concentrations. Topical formulations were prepared by Dow Pharma, and consisted of propylene glycol and ethanol, which contributed to good long term stability of the therapeutic agent. Dosages consisting of placebo, 0.5 mg/mL (low dose), and 2.5 mg/mL (high dose) were prepared. The goals of the study were to assess the safety of topical relaxin on wound healing and to determine the efficacy of relaxin as a treatment for wound healing and/or scar formation. During the first week, irrigation was performed once daily. During weeks 2-3, topical formulation was applied twice daily, and during weeks […], topical formulation was applied once daily.
# Design of Drug. The study drug was relaxin (produced by recombinant technology). Recombinant relaxin is identical to the native human hormone H2 relaxin, produced using a recombinant single chain process. The active test article may be aseptically diluted to the desired concentration with the acetate diluent (20 mM sodium acetate, pH 5.0).
# Study Procedures. Referring to FIG. 3 which depicts the back of a pig with incisions according to the experimental design described herein at the completion of six weeks, the wound in Section 3 was irrigated with relaxin construct during the first week, and subsequently treated with high dose topical relaxin formulation during weeks 2-6 as described above. Sections 4, 5, and 6 received no irrigation during week 1. Section 4 was treated with placebo. Section 5 was treated with low dose topical formulation, and Section 6 was treated with high dose topical formulation.
# Cosmetic appearance of skin. Visual rankings of wound pictures were conducted by neutral observers who evaluated scabs during early wound healing (days 5-7) and scars at the end of the study (see FIG. 4). […] The results of this visual wound assessment determined that 89% of the time a relaxin treatment group was selected in the top three. Only 11% of the time, a group not treated with relaxin was selected in the top three.
# A cosmetic score was also determined by a professional dermatologist at weeks 2, 4, and 6. The cosmetic score has five components: (1) color—matching with surrounding skin; (2) texture—no hardness; (3) distortion—no distortion of nearby skin; (4) contour—flush with surrounding skin; (5) global—no hypertrophy or keloid formation. During this dermatological assessment, evaluation at time 2 weeks was obscured by scabs, so the data for cosmetic scores was collected from evaluation at weeks 4 and 6 (see FIG. 5). […] In the bottom profile, the scar is visible.
# Histological evaluation. A professional histopathologist evaluated the pathology of the treatments for such indications as granulation, inflammation, and necrosis. In judging granulation tissue, it is considered that early response to wound includes invasion of the site by fibroblasts, inflammatory cells, and new blood vessels. Over time, this resolves to more normal tissue as the site heals. Chronic inflammation characterized by the presence of macrophages, giant cells, lymphocytes, and PMNs indicated adverse reaction. Minor factors such as keratosis (formation of keratin layer outside the epidermis) and acanthosis (thickening of the epidermal layer) are also considered. […]
# [4] = systemic relaxin vs no systemic relaxin
# [5] = systemic relaxin, after six weeks, blinded histopathology
substance,measurement,setting,value
relaxin,relapse,tooth movement,prevent relapse
same,tooth movement,tooth movement,speed tooth movement
same,VEGF and bFGF transcripts,wounded sites,upregulation
same,new blood vessel formation selectively at wounded sites,wounded sites,increased
same,RLX detection at the remaining time points,[1]; 2 and 4 hrs,only detected at the site of injection
same,concentration of H2 RLX detected in treated gingiva,"[1]; site of injection, 4 hrs after gingival injection of 25 μg H2 RLX/100 μl",0.021 µM
same,RLX detection 0.5 cm from the site of injection,[2]; 1 hr time point,detected
same,RLX detection 1 cm from the site of injection,[2]; 1 hr time point,not detected
same,RLX detection 2 cm from the site of injection,[2]; 1 hr time point,not detected
same,migration of RLX through the gingiva,[2],stayed close to the injection site
same,migration of RLX through the gingiva,[2]; listed as RLX,stayed close to the injection site; also recorded: limited migration
same,concentration of H2 RLX detected in treated gingiva,[2]; 1 hr after gingival injection of 25 μg H2 RLX/100 μl,0.09 µM
same,concentration of H2 RLX detected in treated gingiva,[2]; 2 hrs after gingival injection of 25 μg H2 RLX/100 μl,0.078 µM
same,blood vessels in the wound site,[3]; after about six weeks of treatment,overall reduction
same,relaxin treatment group selected in the top three in visual wound assessment,[3]; blinded neutral observers ranking best three of six groups of wound pictures,89 % of the time
same,adverse effects / tolerability over dose range,[3]; dose range 10-960 μg/kg/day,no relevant adverse effects; also recorded: well-tolerated
same,wound healing / cosmetic ranking with irrigation relaxin treatment versus topical only,[3]; irrigation week 1 then high dose topical weeks 2-6,particularly efficacious; also recorded: ranked higher overall
same,wound healing with topical-only relaxin compared to placebo,"[3]; low dose 0.5 mg/mL and high dose 2.5 mg/mL topical formulation, six weeks",improved wound healing
same,adverse effects associated with relaxin treatment,"[3]; pig, in vivo",no adverse effects
same,necrosis or inflammation associated with relaxin treatment,"[3]; pig, in vivo",no necrosis or inflammation
same,scarring on histopathological slide,"[3]; relaxin treatment, six weeks, no relaxin: severe scarring",mild scarring
same,wound healing after systemic treatment compared to topical administration,[3]; some indications,better wound healing
same,"collagen organization (objective collagen scoring, red pixel ratio)",[3]; [4],significantly better
same,composite wound healing score (three point collagen scale),[3]; [4],significantly improved
same,wound appearance versus control pig,"[3]; systemic relaxin, after day six","healed faster, better"
same,chronic inflammation in wound sites,[3]; [5],reduces; also recorded: significantly reduced
same,granulation tissue in wound sites,[3]; [5],reduces; also recorded: significantly reduced
same,scar visibility at wound site,"[3]; systemic relaxin, six weeks of treatment, vs placebo (red scar visible)",invisible; also recorded: no scar was visible
